Assay results published in ChEMBL document CHEMBL2375215, “Phenylpropiophenone derivatives as potential anticancer agents: synthesis, biological evaluation and quantitative structure-activity relationship study” (Eur J Med Chem, 2013).

What was measured:
[1] = (§1) Cytotoxicity against human Fem-X cells assessed as decrease in cell survival after 72 hrs by MTT assay; format: functional, cell-based
[2] = tested on: Fem-X; experiment: as §1; format: functional, cell-based
[3] = tested on: K562; experiment: Cytotoxicity against human K562 cells assessed as decrease in cell survival after 72 hrs by MTT assay; format: functional, cell-based; settings: for IC50: K562, 72 h
[4] = tested on: PC-3; experiment: Cytotoxicity against human PC3 cells assessed as decrease in cell survival after 72 hrs by MTT assay; format: functional, cell-based; settings: for IC50: PC-3, 72 h
[5] = tested on: MCF7; experiment: Cytotoxicity against human MCF7 cells assessed as decrease in cell survival after 72 hrs by MTT assay; format: functional, cell-based; settings: for IC50: MCF7, 72 h
[6] = tested on: HeLa; experiment: Cytotoxicity against human HeLa cells assessed as decrease in cell survival after 72 hrs by MTT assay; format: functional, cell-based
[7] = (§2) Cytotoxicity against human LS174 cells assessed as decrease in cell survival after 72 hrs by MTT assay; format: functional, cell-based; settings: LS174, 72 h
[8] = tested on: LS174; experiment: as §2; format: functional, cell-based
[9] = Selectivity index, ratio of IC50 for PHA-stimulated human PBMC to IC50 for human LS174 cells
[10] = tested on: MCF7; experiment: Selectivity index, ratio of IC50 for human PBMC to IC50 for human MCF7 cells
[11] = tested on: PBMC; experiment: Cytotoxicity against human PBMC assessed as decrease in cell survival after 72 hrs by MTT assay; format: cell-based
[12] = tested on: HeLa; experiment: Selectivity index, ratio of IC50 for human PBMC to IC50 for human HeLa cells
[13] = Selectivity index, ratio of IC50 for PHA-stimulated human PBMC to IC50 for human Fem-X cells; format: functional
[14] = tested on: HeLa; experiment: Selectivity index, ratio of IC50 for PHA-stimulated human PBMC to IC50 for human HeLa cells
[15] = tested on: K562; experiment: Selectivity index, ratio of IC50 for PHA-stimulated human PBMC to IC50 for human K562 cells
[16] = tested on: MCF7; experiment: Selectivity index, ratio of IC50 for PHA-stimulated human PBMC to IC50 for human MCF7 cells
[17] = tested on: PBMC; experiment: Cytotoxicity against PHA-stimulated human PBMC assessed as decrease in cell survival after 72 hrs by MTT assay; format: cell-based
[18] = Selectivity index, ratio of IC50 for human PBMC to IC50 for human LS174 cells
[19] = tested on: PC-3; experiment: Selectivity index, ratio of IC50 for PHA-stimulated human PBMC to IC50 for human PC3 cells
[20] = tested on: K562; experiment: Selectivity index, ratio of IC50 for human PBMC to IC50 for human K562 cells
[21] = tested on: PC-3; experiment: Selectivity index, ratio of IC50 for human PBMC to IC50 for human PC3 cells
[22] = Selectivity index, ratio of IC50 for human PBMC to IC50 for human Fem-X cells

SMILES | IC50 ([1]; read-out: IC50) [µM] | IC50 ([1]; read-out: pIC50 (converted)) [µM] | Activity [2] | Activity [3] | IC50 ([3]; read-out: IC50) [µM] | IC50 ([3]; read-out: pIC50 (converted)) [µM] | Activity [4] | IC50 ([4]; read-out: IC50) [µM] | IC50 ([4]; read-out: pIC50 (converted)) [µM] | Activity [5] | IC50 ([5]; read-out: IC50) [µM] | IC50 ([5]; read-out: pIC50 (converted)) [µM] | Activity [6] | IC50 ([6]; read-out: IC50) [µM] | IC50 ([6]; read-out: pIC50 (converted)) [µM] | IC50 ([7]; read-out: IC50) [µM] | IC50 ([7]; read-out: pIC50 (converted)) [µM] | Activity [8] | Ratio IC50 [9] | Ratio IC50 [10] | other results
O=C(/C=C/c1ccc(F)cc1)c1ccccc1O | 21.8 | 21.8 | Dose-dependent effect | Dose-dependent effect | 17.9 | 17.9 | Dose-dependent effect | 30.4 | 30.4 | Dose-dependent effect | 26 | 26 | Dose-dependent effect | 22.6 | 22.6 | 35.3 | 35.3 | Dose-dependent effect | – | – | –
O=C(/C=C/c1ccccc1C(F)(F)F)c1ccccc1O | 10.2 | 10.2 | Dose-dependent effect | Dose-dependent effect | 9.2 | 9.2 | Dose-dependent effect | 33.5 | 33.5 | Dose-dependent effect | 16.9 | 16.9 | Dose-dependent effect | 18.1 | 18.1 | 26.4 | 26.4 | Dose-dependent effect | 1.32 | 2.48 | IC50 [11]: 41.9 µM; Ratio IC50 [12]: 2.31; Ratio IC50 [13]: 3.42; Ratio IC50 [14]: 1.92; Ratio IC50 [15]: 3.79; Ratio IC50 [16]: 2.07; IC50 [17]: 25.2 µM; Ratio IC50 [18]: 1.59; Ratio IC50 [19]: 1.04; Ratio IC50 [20]: 4.55; Ratio IC50 [21]: 1.25; Ratio IC50 [22]: 4.1
O=C(/C=C/c1ccccc1F)c1ccccc1O | 8.7 | 8.7 | Dose-dependent effect | Dose-dependent effect | 4.8 | 4.8 | Dose-dependent effect | 21.6 | 21.6 | Dose-dependent effect | 14.4 | 14.4 | Dose-dependent effect | 8.9 | 8.9 | 17.4 | 17.4 | Dose-dependent effect | 0.94 | 1.22 | IC50 [11]: 17.6 µM; Ratio IC50 [12]: 1.98; Ratio IC50 [13]: 1.88; Ratio IC50 [14]: 1.84; Ratio IC50 [15]: 3.41; Ratio IC50 [16]: 1.14; IC50 [17]: 16.4 µM; Ratio IC50 [18]: 1.01; Ratio IC50 [19]: 0.76; Ratio IC50 [20]: 3.67; Ratio IC50 [21]: 0.81; Ratio IC50 [22]: 2.02
Cc1ccccc1/C=C/C(=O)c1ccccc1O | 22.4 | 22.4 | Dose-dependent effect | Dose-dependent effect | 18.5 | 18.5 | Dose-dependent effect | 19.2 | 19.2 | Dose-dependent effect | 37.7 | 37.7 | Dose-dependent effect | 14.7 | 14.7 | 48.8 | 48.8 | Dose-dependent effect | – | – | –
O=C(/C=C/c1ccccc1Cl)c1ccccc1O | 10.4 | 10.4 | Dose-dependent effect | Dose-dependent effect | 9.8 | 9.8 | Dose-dependent effect | 20.1 | 20.1 | Dose-dependent effect | 29.8 | 29.8 | Dose-dependent effect | 11.2 | 11.2 | 32.2 | 32.2 | Dose-dependent effect | – | – | –
